From ChEMBL document CHEMBL1201862, “PubChem BioAssay data set” (2004)
“And” between values parts separate entries of the source, which are not always exact repeats. Equal values may be shown once.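 Assay format: 96-well plates, 48-hour exposure. The concentration for 50% growth inhibition is given as GI50.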 The source made the active and inactive calls. No stated cut-off is given here; in the data, active = GI50 up to about 1.1 µM and inactive = higher.

Assays:
Assay in all cases: NCI-60 cell line screen, 48 h
786-0 = tested on: 786-0
A549 = tested on: A549
CAKI-1 = tested on: CAKI-1
CCRF-CEM = tested on: CCRF-CEM
HCC 2998 = tested on: HCC 2998
IGROV-1 = tested on: IGROV-1
KM12 = tested on: KM12
M14 = tested on: M14
MDA-MB-435 = tested on: MDA-MB-435
MDA-N = tested on: MDA-N
NCI/ADR-RES = tested on: NCI/ADR-RES
OVCAR-4 = tested on: OVCAR-4
SK-OV-3 = tested on: SK-OV-3
SR = tested on: SR
SW-620 = tested on: SW-620
UACC-257 = tested on: UACC-257
UACC-62 = tested on: UACC-62
OVCAR-3 = tested on: OVCAR-3
BT-549 = tested on: BT-549
HOP-92 = tested on: HOP-92

Row | Compound | GI50 (786-0) | GI50 (A549) | GI50 (CAKI-1) | GI50 (CCRF-CEM) | GI50 (HCC 2998) | GI50 (IGROV-1) | GI50 (KM12) | GI50 (M14) | GI50 (MDA-MB-435) | GI50 (MDA-N) | GI50 (NCI/ADR-RES) | GI50 (OVCAR-4) | GI50 (SK-OV-3) | GI50 (SR) | GI50 (SW-620) | GI50 (UACC-257) | GI50 (UACC-62) | GI50 (OVCAR-3) | GI50 (BT-549) | GI50 (HOP-92)
1 | O=C(/C=C/c1cccs1)c1ccc([N+](=O)[O-])cc1 | > 100 µM (inactive) | > 100 µM (inactive) | > 100 µM (inactive) | > 100 µM (inactive) | > 100 µM (inactive) | > 100 µM (inactive) | 71.9 µM (inactive) | > 100 µM (inactive) | > 100 µM (inactive) | > 100 µM (inactive) | 83.4 µM (inactive) | > 100 µM (inactive) | > 100 µM (inactive) | 65.8 µM (inactive) | > 100 µM (inactive) | > 100 µM (inactive) | > 100 µM (inactive) | – | – | –
2 | C1CCCN(NC2=NCCO2)CC1 | > 100 µM (inactive) | > 100 µM (inactive) | > 100 µM (inactive) | > 100 µM (inactive) | > 100 µM (inactive) | > 100 µM (inactive) | > 100 µM (inactive) | > 100 µM (inactive) | > 100 µM (inactive) | > 100 µM (inactive) | > 100 µM (inactive) | > 100 µM (inactive) | – | > 100 µM (inactive) | > 100 µM (inactive) | > 100 µM (inactive) | > 100 µM (inactive) | > 100 µM (inactive) | – | –
3 | C=CCCC1CCCNC1=S (stereo unspecified) | > 100 µM (inactive) | > 100 µM (inactive) | > 100 µM (inactive) | – | > 100 µM (inactive) | > 100 µM (inactive) | – | > 100 µM (inactive) | > 100 µM (inactive) | > 100 µM (inactive) | – | > 100 µM (inactive) | > 100 µM (inactive) | – | > 100 µM (inactive) | > 100 µM (inactive) | > 100 µM (inactive) | – | > 100 µM (inactive) | > 100 µM (inactive)
4 | CC(=O)OCC1OC(Sc2nc(-c3ccc(C)cc3)c(C#N)c(=O)n2C2OC(COC(C)=O)C(OC(C)=O)C(OC(C)=O)C2OC(C)=O)C(OC(C)=O)C(OC(C)=O)C1OC(C)=O (stereo unspecified) | > 100 µM (inactive) | > 100 µM (inactive) | > 100 µM (inactive) | 4.83 µM (inactive) and 6.76 µM (inactive) | – | > 100 µM (inactive) | – | – | – | – | > 100 µM (inactive) | – | > 100 µM (inactive) | > 100 µM (inactive) | > 100 µM (inactive) | > 100 µM (inactive) | > 100 µM (inactive) | > 100 µM (inactive) | > 100 µM (inactive) | –
5 | CCCCCCCCCCCCCC[S+](C)C | 1.33 µM (inactive) | 1.68 µM (inactive) | 2.61 µM (inactive) | 1.23 µM (inactive) | 1.66 µM (inactive) | 1.12 µM (inactive) | 1.57 µM (inactive) | 1.83 µM (inactive) | 1.91 µM (inactive) | 2.08 µM (inactive) | > 10 µM (inactive) | 2.4 µM (inactive) | 4.02 µM (inactive) | 0.538 µM (active) | 2.33 µM (inactive) | 2.45 µM (inactive) | 2.22 µM (inactive) | 1.48 µM (inactive) | – | 1.18 µM (inactive)
6 | Cc1ccc(-c2n[nH]c(CC#N)n2)cc1 | > 100 µM (inactive) | > 100 µM (inactive) | > 100 µM (inactive) | > 100 µM (inactive) | > 100 µM (inactive) | > 100 µM (inactive) | > 100 µM (inactive) | > 100 µM (inactive) | > 100 µM (inactive) | – | > 100 µM (inactive) | > 100 µM (inactive) | > 100 µM (inactive) | > 100 µM (inactive) | > 100 µM (inactive) | > 100 µM (inactive) | > 100 µM (inactive) | > 100 µM (inactive) | > 100 µM (inactive) | > 100 µM (inactive)
7 | COc1ccc(/C=C/c2cc(OC)c(OC)c(OC)c2)cc1O[Si](C)(C)C(C)(C)C | 10.4 µM (inactive) | 14 µM (inactive) | 41.9 µM (inactive) | – | 43.5 µM (inactive) | 8.95 µM (inactive) | – | 5.97 µM (inactive) | 2.26 µM (inactive) | 2.27 µM (inactive) | – | 19 µM (inactive) | 52.7 µM (inactive) | – | 2.91 µM (inactive) | 10.4 µM (inactive) | 3.35 µM (inactive) | – | 12.1 µM (inactive) | 15.6 µM (inactive)
8 | Cc1cc(NS(=O)(=O)c2ccc(/N=N/c3c(Nc4ccccc4)nn(-c4ccc(S(=O)(=O)Nc5ccncn5)cc4)c3C)cc2)no1 | > 100 µM (inactive) | > 100 µM (inactive) | > 100 µM (inactive) | > 100 µM (inactive) | > 100 µM (inactive) | > 100 µM (inactive) | > 100 µM (inactive) | > 100 µM (inactive) | > 100 µM (inactive) | > 100 µM (inactive) | > 100 µM (inactive) | > 100 µM (inactive) | > 100 µM (inactive) | – | – | > 100 µM (inactive) | > 100 µM (inactive) | > 100 µM (inactive) | – | > 100 µM (inactive)
9 | Cc1nc(N)c(N2CCN(S(N)(=O)=O)CC2)c(O)n1 | > 100 µM (inactive) | > 100 µM (inactive) | – | > 100 µM (inactive) | > 100 µM (inactive) | – | > 100 µM (inactive) | > 100 µM (inactive) | > 100 µM (inactive) | – | > 100 µM (inactive) | > 100 µM (inactive) | – | > 100 µM (inactive) | > 100 µM (inactive) | > 100 µM (inactive) | – | > 100 µM (inactive) | > 100 µM (inactive) | –
10 | CC(C)=Cc1cc(CCC/C(C)=C/Cc2c(O)cc(C)c(C(=O)O)c2O)co1 | > 100 µM (inactive) | > 100 µM (inactive) | > 100 µM (inactive) | 32.1 µM (inactive) | > 100 µM (inactive) | > 100 µM (inactive) | > 100 µM (inactive) | > 100 µM (inactive) | > 100 µM (inactive) | – | > 100 µM (inactive) | > 100 µM (inactive) | – | – | > 100 µM (inactive) | > 100 µM (inactive) | > 100 µM (inactive) | > 100 µM (inactive) | > 100 µM (inactive) | > 100 µM (inactive)
11 | CC1(C)CC2(C)CC1CC2(O)c1ccccc1 (stereo unspecified) | > 100 µM (inactive) | > 100 µM (inactive) | > 100 µM (inactive) | > 100 µM (inactive) | – | > 100 µM (inactive) | > 100 µM (inactive) | > 100 µM (inactive) | > 100 µM (inactive) | > 100 µM (inactive) | – | > 100 µM (inactive) | > 100 µM (inactive) | > 100 µM (inactive) | > 100 µM (inactive) | > 100 µM (inactive) | > 100 µM (inactive) | > 100 µM (inactive) | > 100 µM (inactive) | 42.7 µM (inactive)
12 | O=[PH]1c2ccccc2Nc2ccccc21 | > 100 µM (inactive) | > 100 µM (inactive) | > 100 µM (inactive) | > 100 µM (inactive) | > 100 µM (inactive) | > 100 µM (inactive) | > 100 µM (inactive) | > 100 µM (inactive) | > 100 µM (inactive) | > 100 µM (inactive) | > 100 µM (inactive) | 64.7 µM (inactive) | > 100 µM (inactive) | > 100 µM (inactive) | 63.7 µM (inactive) | > 100 µM (inactive) | > 100 µM (inactive) | 52.6 µM (inactive) | – | > 100 µM (inactive)
13 | O=c1c(Cl)c(Cl)cnn1CCCl | 12.2 µM (inactive) | 17.9 µM (inactive) | 2.27 µM (inactive) | 1.85 µM (inactive) | 3.34 µM (inactive) | 1.95 µM (inactive) | 14.4 µM (inactive) | 2.67 µM (inactive) | 2.82 µM (inactive) | – | – | 1.57 µM (inactive) | 3.56 µM (inactive) | – | 1.9 µM (inactive) | 4.46 µM (inactive) | 3.4 µM (inactive) | 3.47 µM (inactive) | 3.47 µM (inactive) | 1.93 µM (inactive)
14 | COc1ccc(/C(Cl)=C(\CNc2ccccn2)c2ccccc2)cc1OC | > 100 µM (inactive) | > 100 µM (inactive) | > 100 µM (inactive) | > 100 µM (inactive) | > 100 µM (inactive) | > 100 µM (inactive) | > 100 µM (inactive) | – | > 100 µM (inactive) | > 100 µM (inactive) | > 100 µM (inactive) | > 100 µM (inactive) | > 100 µM (inactive) | > 100 µM (inactive) | > 100 µM (inactive) | > 100 µM (inactive) | > 100 µM (inactive) | – | – | > 100 µM (inactive)
15 | CC(O)CNC1=CC(=O)C(=O)c2ccccc21 (stereo unspecified) | 17.6 µM (inactive) | 19 µM (inactive) | 18.7 µM (inactive) | 37.9 µM (inactive) | 11.7 µM (inactive) | 13.4 µM (inactive) | 19.2 µM (inactive) | 15.5 µM (inactive) | 11.3 µM (inactive) | 18.4 µM (inactive) | – | 13.2 µM (inactive) | 34.5 µM (inactive) | 16.7 µM (inactive) | 15.5 µM (inactive) | 16 µM (inactive) | 12.9 µM (inactive) | 3 µM (inactive) | – | 19.5 µM (inactive)
16 | O=C(CC(c1ccccc1)C(C(=O)c1ccncc1)C(CC(=O)c1ccncc1)c1ccccc1)c1ccncc1 (stereo unspecified) | 68.2 µM (inactive) | 26.7 µM (inactive) | > 100 µM (inactive) | > 100 µM (inactive) | > 100 µM (inactive) | 28.4 µM (inactive) | > 100 µM (inactive) | > 100 µM (inactive) | > 100 µM (inactive) | – | 49.3 µM (inactive) | > 10 µM (inactive) | 29.2 µM (inactive) | > 100 µM (inactive) | > 100 µM (inactive) | > 100 µM (inactive) | 86.1 µM (inactive) | 75.9 µM (inactive) | 18.5 µM (inactive) | 48.3 µM (inactive)
